In ChEMBL document CHEMBL5608240, “Structure-Activity Relationship of Inositol Thiophosphate Analogs as Allosteric Activators of Clostridioides difficile Toxin B” (J Med Chem, 2024):
The source made the active and inactive calls. The calls are words filed in the database; no cut-off is given here.

Tests used:
[1] = Solubility of compound assessed as precipitate formation at 250 uM at pH 2 to 8 incubated for 30 mins in presence of 3 to 10 mM CaCl2 by turbidimetric assay; assay type: physicochemical; settings: buffer, pH 2, 0.5 h
Toxin B [2] = target: T1, Toxin B (Clostridioides difficile, UniProt P18177); experiment: Binding affinity to His6 tagged Clostridioides difficile Toxin B truncated cysteine protease domain (543 to 799 residues) extracted from Escherichia coli BL21 (DE3) assessed as dissociation constant by ITC method
[3] = Solubility of compound assessed as precipitate formation at 250 uM at pH 2 to 8 incubated for 30 mins in presence of 1.25 to 10 mM MgCl2 by turbidimetric assay; assay type: physicochemical; settings: buffer, pH 2, 0.5 h
[4] = Solubility of compound assessed as precipitate formation at 250 uM at pH 2 to 8 incubated for 30 mins in presence of 20 to 100 uM ZnCl2 by turbidimetric assay; assay type: physicochemical; settings: buffer, pH 2, 0.5 h
[5] = target: Toxin B (Clostridioides difficile) (UniProt P18177); experiment: Allosteric activation of Clostridioides difficile Toxin B assessed as induction of autoproteolysis by measuring maximal extent cleavage measured after 3 hrs by Western blot based extent cleavage assay relative to control; settings: filed as positive allosteric modulator
[6] = target: Toxin B (Clostridioides difficile) (UniProt P18177); experiment: (§1) Competitive binding affinity to His6 tagged Clostridioides difficile Toxin B truncated cysteine protease domain (543 to 799 residues) extracted from Escherichia coli BL21 (DE3) assessed as peaks with change in chemical shift perturbation by measuring residual activity at 350 uM in presence of (1R,2r,3S,4R,5s,6S)-cyclohexane-1,2,3,4,5,6-hexayl hexakis (dihydrogen phosphate) by 1H-15N-HSQC NMR analysis relative to control; settings: filed as positive allosteric modulator
[7] = target: Toxin B (Clostridioides difficile) (UniProt P18177); experiment: Stabilization of His6 tagged Clostridioides difficile Toxin B truncated cysteine protease domain (543 to 799 residues) extracted from Escherichia coli BL21 (DE3) assessed as change in melting temperature by SYPRO Orange dye based differential scanning fluorometry analysis
[8] = target: Toxin B (Clostridioides difficile) (UniProt P18177); experiment: Allosteric activation of Clostridioides difficile Toxin B assessed as induction of autoproteolysis by measuring increase in TcdB cleavage at 50 uM incubated for 3 hrs in presence of 3 mM CaCl2 by silver staining based SDS-PAGE analysis
[9] = target: Toxin B (Clostridioides difficile) (UniProt P18177); experiment: Stabilization of His6 tagged Clostridioides difficile apo-Toxin B truncated cysteine protease domain (543 to 799 residues) extracted from Escherichia coli BL21 (DE3) assessed as chemical shift perturbation by measuring increase in number of peaks by 1H-15N-HSQC NMR analysis (reference value: 141)
[10] = target: Toxin B (Clostridioides difficile) (UniProt P18177); experiment: Competitive binding affinity to His6 tagged Clostridioides difficile […]-Toxin B truncated cysteine protease domain (543 to 799 residues) extracted from Escherichia coli BL21 (DE3) assessed as peaks with change in chemical shift perturbation at 350 uM by 31P-NMR analysis
Toxin B [11] = target: T1, Toxin B; experiment: Allosteric activation of Clostridioides difficile Toxin B assessed as induction of autoproteolysis measured after 3 hrs in presence of CaCl2, MgCl2, ZnCl2 by Western blot based extent cleavage assay
Toxin B [12] = target: T1, Toxin B; experiment: Allosteric activation of Clostridioides difficile Toxin B assessed as induction of autoproteolysis measured after 3 hrs by Western blot based extent cleavage assay
[13] = Metal chelating activity assessed as compound-Mg2+ complex formation by measuring reduction in free cation concentration at 200 uM in presence of 200 uM MgCl2 by colorimetric assay
[14] = Metal chelating activity assessed as compound-Ca2+ complex formation by measuring reduction in free cation concentration at 200 uM in presence of 200 uM CaCl2 by colorimetric assay
[15] = target: Toxin B (Clostridioides difficile) (UniProt P18177); experiment: Allosteric activation of Clostridioides difficile Toxin B assessed as induction of autoproteolysis by measuring increase in TcdB cleavage at 50 uM incubated for 3 hrs in presence of 1.25 mM MgCl2 by silver staining based SDS-PAGE analysis
Toxin B [16] = target: T1, Toxin B; experiment: Binding affinity to His6 tagged Clostridioides difficile Toxin B truncated cysteine protease domain (543 to 799 residues) extracted from Escherichia coli BL21 (DE3) assessed as dissociation constant in presence of 10 mM Ca2+ by ITC method
[17] = target: Toxin B (Clostridioides difficile) (UniProt P18177); experiment: Allosteric activation of Clostridioides difficile Toxin B assessed as induction of autoproteolysis by measuring increase in TcdB cleavage at 50 uM measured after 3 hrs by silver staining based SDS-PAGE analysis relative to control; settings: filed as positive allosteric modulator
[18] = target: Toxin B (Clostridioides difficile) (UniProt P18177); experiment: Allosteric activation of Clostridioides difficile Toxin B assessed as induction of autoproteolysis by measuring increase in TcdB cleavage at 50 uM incubated for 3 hrs in presence of 10 mM CaCl2 by silver staining based SDS-PAGE analysis relative to control
[19] = target: Toxin B (Clostridioides difficile) (UniProt P18177); experiment: Allosteric activation of Clostridioides difficile Toxin B assessed as induction of autoproteolysis by measuring increase in TcdB cleavage at 50 uM incubated for 3 hrs in presence of 10 mM MgCl2 by silver staining based SDS-PAGE analysis
[20] = target: Toxin B (Clostridioides difficile) (UniProt P18177); experiment: Binding affinity to His6 tagged Clostridioides difficile Toxin B truncated cysteine protease domain (543 to 799 residues) extracted from Escherichia coli BL21 (DE3) assessed as change in number of bound protons per binding interaction at 530 uM by ITC analysis; settings: filed as positive allosteric modulator
[21] = target: Toxin B (Clostridioides difficile) (UniProt P18177); experiment: Stabilization of His6 tagged Clostridioides difficile holo-Toxin B truncated cysteine protease domain (543 to 799 residues) extracted from Escherichia coli BL21 (DE3) assessed as peaks with change in chemical shift perturbation at 350 uM by 1H-15N-HSQC NMR analysis relative to control
[22] = target: Toxin B (Clostridioides difficile) (UniProt P18177); experiment: Allosteric activation of Clostridioides difficile Toxin B assessed as induction of autoproteolysis by measuring increase in TcdB cleavage at 50 uM incubated for 3 hrs in presence of 100 uM ZnCl2 by silver staining based SDS-PAGE analysis
[23] = target: Toxin B (Clostridioides difficile) (UniProt P18177); experiment: as §1, with “1,3,5-(Tri-O-thiophosphate)-myo-inositol-2,4,6-tri-O-sulfate” for “(1R,2r,3S,4R,5s,6S)-cyclohexane-1,2,3,4,5,6-hexayl hexakis (dihydrogen phosphate)”; settings: filed as positive allosteric modulator
[24] = Metal chelating activity assessed as compound-Mg2+ complex formation by measuring precipitation at 250 uM at pH 2 to 8 incubated for 30 mins in presence of 1.25 to 10 mM MgCl2 by turbidimetric assay
[25] = Metal chelating activity assessed as compound-Ca2+ complex formation by measuring precipitation at 250 uM at pH 2 to 8 incubated for 30 mins in presence of 3 to 10 mM CaCl2 by turbidimetric assay
[26] = target: Toxin B (Clostridioides difficile) (UniProt P18177); experiment: Allosteric activation of Clostridioides difficile Toxin B assessed as induction of autoproteolysis by measuring increase in TcdB cleavage measured after 3 hrs by silver staining based SDS-PAGE analysis; settings: filed as positive allosteric modulator
[27] = filed as positive allosteric modulator

T1 sequence (P18177 whole entry, the tested form may be a part): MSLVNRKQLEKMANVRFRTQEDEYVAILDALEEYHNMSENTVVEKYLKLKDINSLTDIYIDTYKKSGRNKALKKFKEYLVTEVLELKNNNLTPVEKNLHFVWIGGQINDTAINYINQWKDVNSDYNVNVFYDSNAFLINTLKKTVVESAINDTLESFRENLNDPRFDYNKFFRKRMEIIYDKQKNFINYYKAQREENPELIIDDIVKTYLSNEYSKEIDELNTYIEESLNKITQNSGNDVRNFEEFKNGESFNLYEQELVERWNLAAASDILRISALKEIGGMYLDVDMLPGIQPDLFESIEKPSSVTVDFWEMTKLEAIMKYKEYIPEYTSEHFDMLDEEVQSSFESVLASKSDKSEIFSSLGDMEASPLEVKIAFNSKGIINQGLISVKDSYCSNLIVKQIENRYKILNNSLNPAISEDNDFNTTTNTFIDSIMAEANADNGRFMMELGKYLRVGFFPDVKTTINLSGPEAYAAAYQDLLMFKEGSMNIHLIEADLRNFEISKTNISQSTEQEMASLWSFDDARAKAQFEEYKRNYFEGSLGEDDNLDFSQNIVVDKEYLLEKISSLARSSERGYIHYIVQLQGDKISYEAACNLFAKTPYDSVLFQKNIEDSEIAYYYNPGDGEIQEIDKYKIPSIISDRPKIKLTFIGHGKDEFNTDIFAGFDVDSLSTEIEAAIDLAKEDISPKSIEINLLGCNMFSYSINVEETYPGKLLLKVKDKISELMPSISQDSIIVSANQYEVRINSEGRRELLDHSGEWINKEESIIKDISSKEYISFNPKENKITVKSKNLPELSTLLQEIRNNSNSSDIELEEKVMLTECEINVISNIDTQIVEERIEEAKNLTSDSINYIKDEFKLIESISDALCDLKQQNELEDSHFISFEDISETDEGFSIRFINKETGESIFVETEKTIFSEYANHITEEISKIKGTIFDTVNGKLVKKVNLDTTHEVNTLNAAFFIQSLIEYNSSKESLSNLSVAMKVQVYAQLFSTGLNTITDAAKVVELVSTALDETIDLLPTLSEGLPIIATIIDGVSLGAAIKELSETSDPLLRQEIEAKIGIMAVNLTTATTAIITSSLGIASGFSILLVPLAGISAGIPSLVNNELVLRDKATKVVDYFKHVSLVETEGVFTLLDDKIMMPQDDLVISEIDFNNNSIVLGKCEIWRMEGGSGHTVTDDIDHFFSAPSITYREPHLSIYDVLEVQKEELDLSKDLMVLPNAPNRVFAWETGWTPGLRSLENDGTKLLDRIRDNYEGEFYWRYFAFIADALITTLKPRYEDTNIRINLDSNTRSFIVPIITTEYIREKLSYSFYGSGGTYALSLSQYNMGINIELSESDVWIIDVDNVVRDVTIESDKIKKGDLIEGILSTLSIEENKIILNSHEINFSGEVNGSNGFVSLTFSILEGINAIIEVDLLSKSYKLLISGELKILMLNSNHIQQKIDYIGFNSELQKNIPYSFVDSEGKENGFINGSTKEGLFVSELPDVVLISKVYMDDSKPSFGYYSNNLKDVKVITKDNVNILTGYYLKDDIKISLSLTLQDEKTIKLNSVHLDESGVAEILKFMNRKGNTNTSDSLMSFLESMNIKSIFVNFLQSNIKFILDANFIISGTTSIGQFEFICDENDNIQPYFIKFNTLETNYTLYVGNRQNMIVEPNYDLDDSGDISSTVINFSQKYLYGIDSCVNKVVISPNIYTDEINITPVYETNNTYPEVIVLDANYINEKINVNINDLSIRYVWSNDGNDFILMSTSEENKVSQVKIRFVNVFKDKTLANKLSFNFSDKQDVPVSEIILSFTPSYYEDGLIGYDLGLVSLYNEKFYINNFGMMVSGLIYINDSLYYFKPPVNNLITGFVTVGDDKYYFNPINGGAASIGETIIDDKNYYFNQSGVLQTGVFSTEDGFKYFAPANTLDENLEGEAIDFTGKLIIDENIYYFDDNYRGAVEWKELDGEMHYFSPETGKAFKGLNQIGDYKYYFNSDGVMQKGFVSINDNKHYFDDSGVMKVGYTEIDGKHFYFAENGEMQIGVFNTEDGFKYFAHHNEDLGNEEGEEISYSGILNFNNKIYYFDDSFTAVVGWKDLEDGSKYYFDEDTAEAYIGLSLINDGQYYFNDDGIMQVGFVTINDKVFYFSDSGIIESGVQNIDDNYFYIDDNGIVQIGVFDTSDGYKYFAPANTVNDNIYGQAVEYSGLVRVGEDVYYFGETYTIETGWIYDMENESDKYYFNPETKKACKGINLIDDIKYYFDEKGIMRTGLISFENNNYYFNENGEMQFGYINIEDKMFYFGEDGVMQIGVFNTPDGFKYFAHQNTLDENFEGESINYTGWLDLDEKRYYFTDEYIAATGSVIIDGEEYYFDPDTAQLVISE
Chain of Toxin B (Clostridioides difficile) (P18177 whole entry, the tested form may be a part): as above

| Structure (SMILES) | solubility [1] | Kd (Toxin B [2]) [µM] | solubility [3] | solubility [4] | ΔTm [7] [°C] | Activity [8] | EC50 (Toxin B [11]) [µM] | EC50 (Toxin B [12]) [µM] | Activity [13] | Activity [14] | Activity [15] | Kd (Toxin B [16]) [µM] | Activity [20] | Activity [22] | also measured |
| --- | --- | --- | --- | --- | --- | --- | --- | --- | --- | --- | --- | --- | --- | --- | --- |
| O=S(=O)(O)O[C@@H]1[C@@H](OS(=O)(=O)O)[C@H](OS(=O)(=O)O)[C@H](OP(O)(O)=S)[C@H](OS(=O)(=O)O)[C@H]1OS(=O)(=O)O | Soluble | 7.14 | Soluble | Soluble | – | – | – | – | – | – | – | – | – | – | – |
| O=S(=O)(O)O[C@H]1[C@H](OP(O)(O)=S)[C@H](OS(=O)(=O)O)[C@H](OP(O)(O)=S)[C@@H](OS(=O)(=O)O)[C@@H]1OP(O)(O)=S | Soluble | 0.662 | Soluble | Soluble | 5.1 | inactive | 113 | 3.56 | Active | Active | inactive | 2.66 | -0.03 | inactive | Activity [5]: 117%; Activity [6]: 7%; Activity [9]: 208; Activity [10, 27]: Active; Activity [17]: Active; Activity [18, 27]: 51%; Activity [19, 27]: 42%; Activity [21]: 49% |
| OP(O)(=S)O[C@H]1[C@H](OP(O)(O)=S)[C@@H](OP(O)(O)=S)[C@H](OP(O)(O)=S)[C@@H](OP(O)(O)=S)[C@H]1OP(O)(O)=S | Soluble | 0.184 | Soluble | Soluble | 5.6 | inactive | 657 | 2.31 | Active | Active | inactive | – | – | inactive | – |
| O=P(O)(O)O[C@H]1[C@H](OP(=O)(O)O)[C@@H](OP(=O)(O)O)[C@H](OP(=O)(O)O)[C@@H](OP(=O)(O)O)[C@H]1OP(=O)(O)O [PHYTIC ACID] | – | 1.36 | – | – | 3.3 | inactive | 536 | 8.39 | – | – | inactive | – | -1.28 | inactive | Activity [23]: 47%; Activity [5]: 98%; Activity [24]: Active; Activity [9]: 193; Activity [10]: inactive; Activity [25]: Active; Activity [18]: 6%; Activity [19]: 23% |
| O=P(O)(O)O[C@@H]1[C@@H](OP(=O)(O)O)[C@H](OP(=O)(O)O)[C@H](OCc2ccccc2)[C@H](OP(=O)(O)O)[C@H]1OP(=O)(O)O | – | – | – | – | – | – | – | – | – | – | – | – | – | – | Activity [26]: Active |
| O=S(=O)(O)O[C@H]1[C@@H](OS(=O)(=O)O)[C@H](OS(=O)(=O)O)[C@@H](OP(O)(O)=S)[C@H](OS(=O)(=O)O)[C@H]1OS(=O)(=O)O | – | 2.19 | – | – | 3.1 | inactive | – | – | Active | Active | inactive | – | – | inactive | Activity [17]: Active |
| O=S(=O)(O)O[C@@H]1[C@@H](OP(O)(O)=S)[C@H](OS(=O)(=O)O)[C@H](OS(=O)(=O)O)[C@H](OS(=O)(=O)O)[C@H]1OP(O)(O)=S | Soluble | 2.2 | Soluble | Soluble | 5.3 | inactive | 557 | 27.1 | Active | Active | inactive | 4.69 | 0.11 | inactive | – |
| O=S(=O)(O)O[C@H]1[C@H](OP(O)(O)=S)[C@@H](OS(=O)(=O)O)[C@H](OP(O)(O)=S)[C@@H](OS(=O)(=O)O)[C@H]1OP(O)(O)=S | – | 2.26 | – | – | – | – | – | – | – | – | – | 5.37 | -0.01 | – | – |
